This note sets out measurements from patent US5792793A, “Antibacterial, antifungal and antiviral agent” (priority 1993, dated 1998).

The test system of one series is Aspergillus flavus. Description: Surface-smearing method, Aspergillus flavus. To be noted: about 10 mg complex, 4 days at 25° C. The format is cell-based.
The subject of the next series is Penicillium chrysogenum. Nature of the series: Surface-smearing method, Penicillium chrysogenum. Type of series: cell-based. Conditions: about 10 mg complex, 4 days at 25° C. Further details: key: the proliferation level of the control (=100%, -); +: up to 80% of proliferation with respect to the proliferation level of the control (=100%, -); ++: up to 40% of proliferation; +++: almost complete suppression of proliferation.

The subject of series [1] is Cladosporium cladosporoides. Description: Surface-smearing method, Cladosporium cladosporoides. Type of series: cell-based. Further details: key: the proliferation level of the control (=100%, -); +: up to 80% of proliferation with respect to the proliferation level of the control (=100%, -); ++: up to 40% of proliferation; +++: almost complete suppression of proliferation. Conditions: about 10 mg complex, 4 days at 25° C.

For a further series, the system named is Fusarium oxysporum. Nature of the series: Surface-smearing method, Fusarium oxysporum. The format is cell-based. Conditions: about 10 mg complex, 4 days at 25° C.
Another series relates to E. coli. Description: Minimal inhibitory concentration, E. coli. Type of series: cell-based. Conditions: SCD liquid medium, 48 hours at 35° C.
For the next series, the system named is S. aureus. Description: Minimal inhibitory concentration, S. aureus. The format is cell-based. Conditions: SCD liquid medium, 48 hours at 35° C.
In the next series the test system is B. subtilis. Description: Minimal inhibitory concentration, B. subtilis. Conditions: SCD liquid medium, 48 hours at 35° C.
The subject of the next series is C. albicans. Nature of the series: Minimal inhibitory concentration, C. albicans. To be noted: GP liquid medium, 48 hours at 35° C.
The next series concerns P. aeruginosa. Nature of the series: Minimal inhibitory concentration, P. aeruginosa. Conditions: SCD liquid medium, 48 hours at 35° C.
A further series deals with S. cerevisiae. Nature of the series: Minimal inhibitory concentration, S. cerevisiae. To be noted: GP liquid medium, 48 hours at 35° C.
Another series is described as follows: Solubility in water. Conditions: 20° C.
Series [2] is described as follows: Stability against exposure to light (color difference). The format is physicochemical. The method, then: To 10 mg of each of the thiol-silver complexes shown in Table 9 to be tested, 1 ml of ethanol was added and then sonicated so as to disperse particles. The dispersed particles were uniformly fixed onto a Kiriyama filter paper (No. 3, diameter: 21 mm) by the application of a suction force. After drying, test pieces of the filter paper were sandwiched between colorless transparent plastic films (each having a thickness of 0.1 mm) and the peripheries were sealed.
The test pieces were exposed to sunlight outdoors on a sunny day. During the test, they were placed such that their surfaces received direct rays of the sun at an incidence angle of approximately 90°.
Measurement was performed using a color difference meter CR-300 (using D65 rays) manufactured by Minolta Camera Co., Ltd. Six hours after exposure to sunlight, measurement was reiterated 4 times and the data were averaged.

In the next series the test system is mice. Description: Peroral toxicity, single dose. Type of series: in vivo, mice (ICR, male). To be noted: for Dead mice/Total mice: day 14.
For series [3], the system named is human cytomegalovirus (HCMV). Description: Anti-HCMV activity, Experiment 1. Conditions: 10 μg/ml; Experiment 1, HCMV 1×10^3 pfu/ml, HEL cells, 72 hours; control 30. Type of series: cell-based.
In series [4] the test system is human cytomegalovirus (HCMV). Nature of the series: Anti-HCMV activity, Experiment 2 (1). Type of series: cell-based. Conditions: HCMV 1×10^4 pfu/ml, medium not changed, 72 hours, control 390.
Series [5] relates to human cytomegalovirus (HCMV). Description: Anti-HCMV activity, Experiment 2 (2). The format is cell-based. To be noted: HCMV 1×10^4 pfu/ml, washed after 1 hour adsorption, 72 hours, control 120.
[6] abbreviates: after exposure to sunlight, six hours.

Description for B. subtilis: (§1) (b) Method for measuring antibacterial activity based on a minimal inhibitory concentration (MIC)
(§2) A bacterium was inoculated in a soybean casein digest (SCD) liquid medium (5 ml) and precultured for 24 hours at 35° C. The precultured bacterial liquid was diluted so as to obtain a 100-fold diluted liquid (0.1 ml), and was inoculated into an SCD liquid medium containing a thiol-silver complex (2 ml). After performing shaking culture for 48 hours at 35° C., presence or absence of proliferation was assessed.
Description for C. albicans: (§3) Yeast was inoculated in a glucose-peptone (GP) liquid medium (5 ml) and precultured for 24 hours at 35° C. The precultured bacterial liquid was diluted so as to obtain a 100-fold diluted liquid (0.1 ml), and was inoculated into a GP liquid medium containing a thiol-silver complex (2 ml). After performing shaking culture for 48 hours at 35° C., presence or absence of proliferation was assessed.
Description for P. aeruginosa: as §1, §2
Description for S. cerevisiae: as §3

As for 2-Naphthalenethiol-silver complex [#3], the “antibacterial activity ranking, surface-smearing method” value (from here on “antibacterial activity ranking”) is reported as “+ (up to 80% of proliferation with respect to the proliferation level of the control (=100%, -))” with Aspergillus flavus; “+ (up to 80% of proliferation with respect to the proliferation level of the control (=100%, -))” in the series with Penicillium chrysogenum; “+++” in series [1]; “- (the proliferation level of the control (=100%, -))” in the series with Fusarium oxysporum. The “Minimal Inhibitory Concentration” value is 8 µg/mL in the series with E. coli; 250 µg/mL in the series on S. aureus; less than 2 µg/mL with B. subtilis; 125 µg/mL in the series with C. albicans; 250 µg/mL in the series with P. aeruginosa; 62.5 µg/mL in the series on S. cerevisiae.

For the compound “5-Mercapto-(1H)tetrazoylacetic acid-silver complex.Na [#16-b]”, the “antibacterial activity ranking” value in the series with Aspergillus flavus is reported as “+ (up to 80% of proliferation with respect to the proliferation level of the control (=100%, -))”; in the series with Penicillium chrysogenum it was “+++”; in [1], “+++”; in the series on Fusarium oxysporum, “++ (up to 40% of proliferation)”. Besides, the “Minimal Inhibitory Concentration” value in the series with E. coli is 16 µg/mL; with S. aureus, 32 µg/mL; with B. subtilis, 32 µg/mL; with C. albicans, 250 µg/mL; with P. aeruginosa it was 16 µg/mL; with S. cerevisiae, 125 µg/mL.

For the compound `[Cl][Ag]` [silver chloride], the “solubility, in water” value in “Solubility in water” is recorded as “less than 1 % by weight”.

Take “Thiosalicylic acid-silver complex [#1L-8H]”: the “antibacterial activity ranking” value in the series with Aspergillus flavus was “- (the proliferation level of the control (=100%, -))”; in the series on Penicillium chrysogenum, “++ (up to 40% of proliferation)”; in series [1], “+++”; in the series with Fusarium oxysporum, “++ (up to 40% of proliferation)”. For the same compound, the “Minimal Inhibitory Concentration” value in the series on E. coli is less than 2 µg/mL; in the series on S. aureus it was 16 µg/mL; with B. subtilis it was less than 2 µg/mL; in the series on C. albicans, 1000 µg/mL; in the series on P. aeruginosa it was 16 µg/mL; in the series on S. cerevisiae it was 125 µg/mL. For the same compound, the “L* (L*a*b* color representation)” value was 65.4 in series [2] (setting [6]) and 83.1 in series [2] (before exposure to sunlight). The “a* (L*a*b* color representation)” value turned out to be 8.3 in series [2] (setting [6]) and 13.2 in series [2] (before exposure to sunlight). Besides, the “b* (L*a*b* color representation)” value came out at 40.1 in series [2] (setting [6]) and 66.4 in [2] (before exposure to sunlight). The “Dead mice/Total mice” value with mice (1762 mg/kg peroral single dose) is on record as 0/5; in the series with mice (2291 mg/kg peroral single dose) it was 0/5; in the series with mice (2978 mg/kg peroral single dose), 0/4; with mice (3871 mg/kg peroral single dose) it was 0/4. Further, in the series with mice (peroral, single dose, ICR male mice, 20160 min), the LD50 entry was “not less than 3.9 g/kg”. The “number of cells positive in fluorescent staining (single field of vision)” value came to 5 in series [3]; 280 in series [4] (1 μg/ml); 240 in series [4] (10 μg/ml); 100 in series [4] (50 μg/ml); 30 in series [5] (1 μg/ml); 30 in [5] (10 μg/ml). Further, the “number of cells positive in fluorescent staining (single field of vision)” value in series [5] (50 μg/ml) was determined as 20.

α-Thioglycerol-silver complex [#14-b]: the “antibacterial activity ranking” value with Aspergillus flavus is on record as “- (the proliferation level of the control (=100%, -))”; in the series on Penicillium chrysogenum, “+ (up to 80% of proliferation with respect to the proliferation level of the control (=100%, -))”; in [1], “++ (up to 40% of proliferation)”; in the series on Fusarium oxysporum, “- (the proliferation level of the control (=100%, -))”. Moreover, the “Minimal Inhibitory Concentration” value with S. aureus is 250 µg/mL; with B. subtilis, 250 µg/mL; in the series with C. albicans it was more than 1000 µg/mL; in the series on P. aeruginosa, 62.5 µg/mL; with S. cerevisiae it was 250 µg/mL.
